Assay results from paper PMC4532999 (Scientific Reports, 2015).
Positions of bridges follow the written chain, without caps; N, C: chain ends. Residues, ends and D or L forms follow the SMILES beside them.

Experiments:
Abl kinase = Abl kinase (Homo sapiens, UniProt P00519); assay: BacKin assay, inhibition of phosphorylation of abltide displayed on E. coli; format: biochemical; conditions: 32 μM peptide, Abl kinase 0.2 U/mL, 37 °C, 30 min
HeLa cells = tested on: HeLa cells
Description: Since BCR-ABL localizes predominantly in the cytoplasm, it is important to evaluate whether the designed peptides can be internalized into cells.
Human cervical cancer cells (HeLa) were seeded in 175-cm^2 tissue culture flasks (Falcon), in Dulbecco’s Modified Eagle’s Medium (DMEM) supplemented with 10% fetal bovine serum, 100 U/mL penicillin and […] streptomycin, until 80% confluent.
Cytotoxicity of the MTAbl peptides towards HeLa cells was evaluated before the cell internalization assay. The mammalian cell cytotoxicity assay was conducted using a method described earlier. HeLa cells were seeded the day before the assay in 96-well tissue culture-treated plates (2.5 × 10^3 cells/well). […] Peptide solutions were diluted 10-fold with serum-free medium and incubated with cells in triplicates for 2 h. […] Following incubation the peptide solutions were removed and aliquots of 10 μL of 0.02% (w/v) sterile resazurin (resazurin sodium salt, Sigma) were added to each well containing 100 μL of fresh medium. […] The absorbance of the plates was measured on a plate reader at 540 and 620 nm.

Serum stability assay = conditions: for remaining at 24 h, 30 μM: male, human, serum; for stability in human serum (in words; comparison to MCoTI-II at 24 h): 100% human serum, 37 °C, one-way ANOVA, three replicates
Description: All peptides were tested at a final concentration of 30 μM in 100% human serum. […] Reactions were stopped at the stipulated times and the serum proteins in each sample were denatured and precipitated, followed by centrifugation at 17,000 g for 10 min to separate the serum proteins from peptide samples. […] The elution time for each peptide was determined by the PBS control from 0 time point. The percentage of peptide remaining at each time point was calculated using the height of the serum-treated peptide peak from time 0 as 100% recovery.

[1] = 100% human male AB serum (Sigma); conditions: 37 °C, up to 24 h

Chain of Abl kinase (P00519 whole entry): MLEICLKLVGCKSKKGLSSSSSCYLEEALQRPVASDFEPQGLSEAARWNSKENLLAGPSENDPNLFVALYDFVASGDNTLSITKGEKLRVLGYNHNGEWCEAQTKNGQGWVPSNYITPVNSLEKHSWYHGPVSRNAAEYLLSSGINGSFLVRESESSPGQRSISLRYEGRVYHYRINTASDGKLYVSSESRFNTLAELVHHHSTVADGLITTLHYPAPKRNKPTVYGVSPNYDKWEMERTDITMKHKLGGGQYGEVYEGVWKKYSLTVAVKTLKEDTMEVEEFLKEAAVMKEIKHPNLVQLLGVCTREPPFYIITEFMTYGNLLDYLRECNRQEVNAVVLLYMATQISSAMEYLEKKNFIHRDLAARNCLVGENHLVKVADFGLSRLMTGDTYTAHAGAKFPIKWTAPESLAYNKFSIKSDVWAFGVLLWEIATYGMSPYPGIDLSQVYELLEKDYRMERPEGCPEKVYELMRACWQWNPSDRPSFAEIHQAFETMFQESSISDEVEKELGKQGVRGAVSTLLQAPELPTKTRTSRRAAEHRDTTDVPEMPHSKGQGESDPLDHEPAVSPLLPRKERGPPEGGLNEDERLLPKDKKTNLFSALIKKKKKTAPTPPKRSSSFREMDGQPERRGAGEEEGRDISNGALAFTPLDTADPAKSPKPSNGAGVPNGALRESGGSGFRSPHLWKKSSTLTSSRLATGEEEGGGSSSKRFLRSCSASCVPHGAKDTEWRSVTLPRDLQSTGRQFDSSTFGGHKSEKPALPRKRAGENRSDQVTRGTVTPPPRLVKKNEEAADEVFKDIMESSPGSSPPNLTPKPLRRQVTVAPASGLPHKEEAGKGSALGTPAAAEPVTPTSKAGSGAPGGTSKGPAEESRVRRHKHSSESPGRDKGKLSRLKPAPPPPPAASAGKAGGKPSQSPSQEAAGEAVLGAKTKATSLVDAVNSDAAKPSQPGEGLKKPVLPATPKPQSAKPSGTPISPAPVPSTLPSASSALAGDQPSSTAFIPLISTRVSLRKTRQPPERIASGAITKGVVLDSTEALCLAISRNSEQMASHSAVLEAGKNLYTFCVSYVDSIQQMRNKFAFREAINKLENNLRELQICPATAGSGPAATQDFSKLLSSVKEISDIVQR

Row | Molecule | percentage of Abl kinase inhibition (Abl kinase) | concentration up to which no cytotoxicity towards HeLa cells (HeLa cells) [µM] | remaining at 24 h, 30 μM (Serum stability assay) [%] | fragment found [1] | stability in human serum (in words; comparison to MCoTI-II at 24 h) (Serum stability assay)
1 | CC[C@H](C)[C@@H]1NC(=O)[C@H](C)NC(=O)[C@H](CCC(=O)O)NC(=O)CNC(=O)[C@@H]2CSSC[C@@H]3NC(=O)[C@H](CC(=O)O)NC(=O)[C@H](CO)NC(=O)[C@H](CC(=O)O)NC(=O)[C@H](CCCNC(=N)N)NC(=O)[C@H](CCCNC(=N)N)NC(=O)[C@@H]4CSSC[C@H](NC(=O)[C@H]([C@@H](C)CC)NC(=O)[C@H](CSSC[C@H](NC(=O)[C@H](CCCNC(=N)N)NC(=O)[C@H](C)NC(=O)[C@H](Cc5ccccc5)NC(=O)[C@@H]5CCCN5C(=O)[C@H](C)NC(=O)[C@H](C)NC(=O)[C@H](Cc5ccc(O)cc5)NC1=O)C(=O)N1CCC[C@H]1C(=O)N[C@@H](CCCCN)C(=O)N[C@@H]([C@@H](C)CC)C(=O)N[C@@H](CC(C)C)C(=O)N[C@@H](CCCCN)C(=O)N[C@@H](CCCCN)C(=O)N4)NC(=O)[C@H](C)NC(=O)CNC(=O)[C@@H]1CCCN1C3=O)C(=O)N[C@@H](CCCNC(=N)N)C(=O)NCC(=O)N[C@@H](CC(N)=O)C(=O)NCC(=O)N[C@@H](Cc1ccc(O)cc1)C(=O)N2 [MTAbl06] (cyclo(AAPFARCPKILKKCRRDSDCPGACICRGNGYCGEAIY); disulfide 7-24, 14-26, 20-32) | ~ 90% | > 64 | > 75 |  | 
2 | CPKILKKCRRDSDCPGACICRGNGYCGEAIY*AAPFAR |  |  |  | MTAbl06 (i.e. dephosphorylated MTAbl12) | 
3 | CC[C@H](C)[C@@H]1NC(=O)[C@H](C)NC(=O)[C@H](CCC(=O)O)NC(=O)CNC(=O)[C@@H]2CSSC[C@@H]3NC(=O)[C@H](CC(=O)O)NC(=O)[C@H](CO)NC(=O)[C@H](CC(=O)O)NC(=O)[C@H](CCCNC(=N)N)NC(=O)[C@H](CCCNC(=N)N)NC(=O)[C@@H]4CSSC[C@H](NC(=O)[C@H]([C@@H](C)CC)NC(=O)[C@H](CSSC[C@H](NC(=O)[C@H](CCCNC(=N)N)NC(=O)[C@H](C)NC(=O)[C@H](Cc5ccccc5)NC(=O)[C@@H]5CCCN5C(=O)[C@H](C)NC(=O)[C@H](C)NC(=O)[C@H](Cc5ccc(O)cc5)NC1=O)C(=O)N[C@@H](CCC(=O)O)C(=O)N[C@@H](C)C(=O)N[C@@H]([C@@H](C)CC)C(=O)N[C@@H](Cc1ccc(O)cc1)C(=O)N[C@@H](C)C(=O)N[C@@H](C)C(=O)N1CCC[C@H]1C(=O)N[C@@H](CCCCN)C(=O)N4)NC(=O)[C@H](C)NC(=O)CNC(=O)[C@@H]1CCCN1C3=O)C(=O)N[C@@H](CCCNC(=N)N)C(=O)NCC(=O)N[C@@H](CC(N)=O)C(=O)NCC(=O)N[C@@H](Cc1ccc(O)cc1)C(=O)N2 [MTAbl13] (cyclo(AAPFARCEAIYAAPKCRRDSDCPGACICRGNGYCGEAIY); disulfide 7-26, 16-28, 22-34) |  | > 64 | > 75 |  | statistically more stable than MCoTI-II
4 | CC[C@H](C)[C@@H]1NC(=O)[C@H](C)NC(=O)[C@H](CCC(=O)O)NC(=O)CNC(=O)[C@@H]2CSSC[C@@H]3NC(=O)[C@H](CC(=O)O)NC(=O)[C@H](CO)NC(=O)[C@H](CC(=O)O)NC(=O)[C@H](CCCNC(=N)N)NC(=O)[C@H](CCCNC(=N)N)NC(=O)[C@@H]4CSSC[C@H](NC(=O)[C@H]([C@@H](C)CC)NC(=O)[C@H](CSSC[C@H](NC(=O)[C@H](CCCNC(=N)N)NC(=O)[C@H](CCCNC(=N)N)NC(=O)[C@H](CCCNC(=N)N)NC(=O)[C@H](C)NC(=O)[C@H](Cc5ccccc5)NC(=O)[C@@H]5CCCN5C(=O)[C@H](C)NC(=O)[C@H](C)NC(=O)[C@H](Cc5ccc(O)cc5)NC1=O)C(=O)N1CCC[C@H]1C(=O)N[C@@H](CCCCN)C(=O)N[C@@H]([C@@H](C)CC)C(=O)N[C@@H](CC(C)C)C(=O)N[C@@H](CCCCN)C(=O)N[C@@H](CCCCN)C(=O)N4)NC(=O)[C@H](C)NC(=O)CNC(=O)[C@@H]1CCCN1C3=O)C(=O)N[C@@H](CCCNC(=N)N)C(=O)NCC(=O)N[C@@H](CC(N)=O)C(=O)NCC(=O)N[C@@H](Cc1ccc(O)cc1)C(=O)N2 [MTAbl07] (cyclo(AAPFARRRCPKILKKCRRDSDCPGACICRGNGYCGEAIY); disulfide 9-26, 16-28, 22-34) |  | > 64 | > 75 |  | as stable as MCoTI-II
5 | CC[C@H](C)[C@@H]1NC(=O)[C@H](C)NC(=O)[C@H](CCC(=O)O)NC(=O)[C@@H]2CSSC[C@@H]3NC(=O)[C@H](C)NC(=O)CNC(=O)[C@@H]4CCCN4C(=O)[C@@H]4CSSC[C@H](NC(=O)[C@H](Cc5ccc(O)cc5)NC(=O)CNC(=O)[C@H](CC(N)=O)NC(=O)CNC(=O)[C@H](CCCNC(=N)N)NC(=O)[C@H](CSSC[C@H](NC(=O)[C@H](CCCCN)NC(=O)[C@@H]5CCCN5C(=O)[C@H](C)NC(=O)[C@H](C)NC(=O)[C@H](Cc5ccc(O)cc5)NC1=O)C(=O)N[C@@H](CCCNC(=N)N)C(=O)N[C@@H](CCCNC(=N)N)C(=O)N[C@@H](CC(=O)O)C(=O)N[C@@H](CO)C(=O)N[C@@H](CC(=O)O)C(=O)N4)NC(=O)[C@H]([C@@H](C)CC)NC3=O)C(=O)NCC(=O)N[C@@H](CO)C(=O)NCC(=O)N[C@@H](CO)C(=O)N[C@@H](CC(=O)O)C(=O)NCC(=O)NCC(=O)N[C@@H](C(C)C)C(=O)N2 [MTAbl09] (cyclo(AAPKCRRDSDCPGACICRGNGYCGSGSDGGVCEAIY); disulfide 5-17, 11-23, 15-32) |  | > 64 | > 75 |  | statistically more stable than MCoTI-II
